According to the METLIN SMRT retention time set (Domingo-Almenara et al. 2019):

Experiment: gradient 5% acetonitrile 3 min, to 50% in 2 min, to 85% in 15 min, held 3 min, 100 µL/min
Conditions: column: Zorbax Extend-C18 2.1 x 50 mm; eluents: water / acetonitrile, 0.1% formic acid
In short: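 Retention times of pure standards were taken from adduct peaks that were selected by computer and manually inspected. Over 3 months, mixtures of ~100 molecules were run by HPLC–quadrupole time-of-flight mass spectrometry in positive and negative ionization mode. The Zorbax Extend-C18 column (2.1 × 50 mm, 1.8 μm) ran at 100 μL/min in water and acetonitrile, each containing 0.1% formic acid, with 40 μL dead volume and 900 μL dwell volume.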

RP-LC retention time [s]	Compound
1000	O=C(c1cc(-c2ccc(F)cc2)c[nH]1)N1CCc2ccccc21
921	Cc1nn(-c2cc(N3CCCC3)ncn2)c(C)c1CCC(=O)NCc1ccc2c(c1)OCO2
598	CCN1CCN(CC2CCN(S(=O)(=O)c3cc(F)cc(F)c3)CC2)CC1
754	COc1ccc(C(C)NC(=O)C2CCN(C(=O)c3ncn4c3COC(c3ccccc3)C4)CC2)cc1 (centres undefined)
877	COc1ccc(C(=O)Nc2nc(-c3ccc4c(c3)NC(=O)C(C)O4)cs2)cc1 (centres undefined)
781	Cc1ccc2nc(-c3ccccc3O)c(Nc3ccc(Cl)cc3)n2c1
639	Cc1ccc(-c2nc(-c3ccc4c(c3)ncn4CCN3CCCC3)no2)s1
800	Cc1ccc(CNC(=O)C2CCCN(c3nnc(C)c4c(C)n(-c5ccc(C)cc5)nc34)C2)cc1 (centres undefined)
805	COCCN1C(=O)c2ccccc2C(C(=O)NCCCN2CCOCC2)C1c1cccs1 (centres undefined)
735	COc1ccc(-c2nc(CN3CCCC3=O)no2)cc1
744	Cc1cccc(CN2CCCn3nc(C(=O)NC4CC4)cc3C2=O)c1
785	C=Cc1ccc(CN2CCCN(c3ncccc3-c3nc(C(C)C)no3)CC2)cc1
611	Nc1nc(Cl)nc2c1ncn2[C@@H]1O[C@H](CO)[C@H](O)C1O (some centres undefined)
802	O=C(NCC1CCCCC1)C1CCN(C(=O)c2ncn3c2COC(c2ccccc2)C3)CC1 (centres undefined)
810	CCOC(=O)c1sc(NC(=O)CSc2nc3ccccc3[nH]2)nc1C
698	Cc1c(-c2ccccc2)nc2ccc(Br)cc2c1C(=O)O
697	CCN1C(=O)c2cccnc2Sc2cc(C(=O)NC(C)C)ccc21
743	COc1ccc(-c2noc(C3CC(=O)N(c4ccc(OC)c(OC)c4)C3)n2)cc1OC (centres undefined)
706	O=C(CCc1nc2cccnc2n1-c1ccccc1)NCCc1c[nH]c2ccccc12
784	CSc1ccc(CNC(=O)c2c(C)sc3ccn(C)c(=O)c23)cc1
544	CNC(=O)Nc1cccnc1N1CCCCC1
633	CC1=NOC(C)(CNC(=O)NC2CCCC2)C1 (centres undefined)

RP-LC retention time [s]	Compound
636	CCC1CN2C=NC(N3CCN(C(=O)c4nn(C)c5ccccc45)CC3)=CC2=N1 (centres undefined)
674	CCN(CC)S(=O)(=O)c1ccc2nc(N3CCN(C4CCCCC4)CC3)cnc2c1
727	CCOC(=O)c1csc(NC(=O)Cn2nc3c(cc2=O)CCCC3)n1
1020	CCc1ccc(C2=Nc3cccnc3N(CC(=O)Nc3ccc4c(c3)OCCO4)C(=O)C2)cc1
709	COc1cc2c(Oc3ccc4[nH]c(C)cc4c3F)ncnc2cc1OCCCN1CCCC1
594	CC(C)(C)c1onc(OCP(=O)(O)O)c1CC(N)C(=O)O (centres undefined)
921	CC1(C)O[C@@H]2C[C@H]3[C@@H]4C[C@H](F)C5=CC(=O)C=C[C@]5(C)[C@@]4(F)[C@@H](O)C[C@]3(C)[C@]2(C(=O)CO)O1
648	CCSCCOC(=O)C1=C(C)NC2=C(C(=O)CC(C)(C)C2)C1c1ccccn1 (centres undefined)
764	O=C(Cc1csc(-c2ccccc2)n1)Nc1nc(-c2ccc3c(c2)CCCC3)cs1
742	Cc1c(F)cccc1NC(=O)N(C)CC1CCOCC1
754	CC(=O)Nc1ccc(NC(=O)c2cccc(N3C(=O)NC4CC3(C)Oc3ccc(Cl)cc34)c2)cc1 (centres undefined)
664	O=C(CSc1nnc(CNC(=O)c2cccc(C(F)(F)F)c2)o1)NCC1CCCO1 (centres undefined)
794	O=C(N[C@H]1C[C@@H]2C[C@H]1CN2S(=O)(=O)c1ccc(C(F)(F)F)cc1)c1cccnc1
803	COc1ccc(-c2nnc(-c3cc(S(=O)(=O)Nc4cccnc4)ccc3Cl)o2)cc1
600	COc1ccc(CC(=O)NCc2ccc3c(c2)ncn3C(C)C)cc1
1220	Cc1c(Cl)cccc1S(=O)(=O)N1CCCC1c1nc(-c2cccc(F)c2)no1 (centres undefined)
870	O=C(NC1CCN(c2cc(-c3ccc(Cl)cc3)[nH]n2)C1)c1cccc(Br)c1 (centres undefined)
768	NC(=O)N/N=C1\CC2CC1C1C=CCC21 (centres undefined)
714	CC(C)(C)C(=O)N[C@H](Cc1ccccc1)C(=O)NCc1cscn1
582	Cc1cnc(C(=O)N2CCCn3ccnc3C2C2CCCC2)cn1 (centres undefined)
594	CC(C)NC(=O)CN1CCN(c2cc(C(=O)O)c3cc(NC(=O)c4ccccc4F)ccc3n2)CC1
1030	Cc1ccc(-c2noc(CN3C(=O)COc4ccccc43)n2)cc1

RP-LC retention time [s]	Compound
874	CC(C)NC(=O)c1ccc(-c2ccc(Cl)cc2)o1
920	Cc1ccc(Cn2c(N3CCC(C(=O)NCC(C)C)CC3)nc3ccsc3c2=O)cc1
745	CCC(C)NC(=O)C1CCN(c2nccc(-n3nc(C)cc3C)n2)CC1 (centres undefined)
686	Cc1cc(C)c(S(=O)(=O)N2CCc3c(c(CN4CCCC4)nn3C)C2)c(C)c1
564	Cc1ccc(C(=O)NCCc2ncc(C)n2C2CCC2)s1
829	CCOC(=O)CCCn1nc(C)c2c(C)n(-c3ccccc3)nc2c1=O
795	Cc1ccc(NC(=O)N2CCC(n3cnc4ccc(C)cc4c3=O)CC2)c(C)c1
1020	COc1ccccc1-c1cc2c(=O)n(Cc3nc(-c4ccccc4OC)oc3C)ccn2n1
647	O=S(=O)(c1ccc2c(c1)-c1oncc1CO2)N1CCN(c2ccccn2)CC1
662	Cc1ccn2cc(-c3ccc(NS(=O)(=O)c4cccc([N+](=O)[O-])c4)cc3)nc2n1
1200	Cc1ccc(Cl)cc1N1CCN(c2ccc3cc(S(=O)(=O)N4CCOCC4)ccc3n2)CC1
798	O=C(C(=O)N1CCOCC1)c1c(-c2ccccc2)cc2ccccn12
819	CC(C)CN1C(=O)CCc2cc(NS(=O)(=O)c3cccs3)ccc21
630	CC(C)CC(=O)Nc1ccc2c(c1)nc(CN1CCOCC1)n2C(C)C
1100	O=C(Nc1cnc(-c2cccc(Cl)c2)nc1)C1CCCC1
920	COC(=O)C1=CN(c2ccc(F)cc2C)c2ccc(F)cc2S1(=O)=O
688	CCN(CC)CCNC(=O)C1CCCN(c2ncc(-c3ccc(F)cc3)cn2)C1 (centres undefined)
716	CCN1CCN(C(=O)Cn2c(=O)c3cnc(-c4ccc(Cl)cc4)nc3n(CC)c2=O)CC1
742	CCN1CCN(c2ccc(NC(=O)c3ccc(Cl)s3)cn2)C1=O
827	CCc1noc(NC(C)=O)c1-c1ccc(C)c(S(=O)(=O)Nc2c(Cl)cc(OC)cc2OC)c1
715	O=C(NCc1ccco1)C1CCN(c2nnc3ccc(C(F)(F)F)cn23)CC1
750	CC(C)CNC(=O)C1Cn2cccc2C(=O)N1CC(C)C (centres undefined)

RP-LC retention time [s]	Compound
595	CCCNC(=O)C(=O)NCC(c1ccc2c(c1)OCO2)N1CCOCC1 (centres undefined)
813	O=C(c1ccc(N2CCCCC2)c(S(=O)(=O)N2CCCCC2)c1)N1CCN(c2ccccn2)CC1
919	Cc1sc2ccn(Cc3ccc(F)cc3)c(=O)c2c1C(=O)NC1CCCC1
793	CCc1nnc(-c2ccc3ccn(CC(=O)NCc4cc(OC)ccc4OC)c3c2)o1
588	O=C(NCCN1CCN(c2ccc(F)cc2)CC1)C(=O)NCc1ccc(F)cc1
908	O=C(NC1CCCCC1)c1ccc2ccnc(N3CCN(c4ccc(F)cc4)CC3)c2c1
877	Cc1cc(C)cc(N2CCC(NC(=O)CC(C)(C)C)C2=O)c1 (centres undefined)
596	CCOC(=O)c1c(NC(=O)CN2CCN(CC)CC2)sc(C)c1C
740	CN(C(=O)CN1C(=O)NC2(CCCCC2)C1=O)c1ccccc1
718	O=C1NCC/C1=C\c1ccc(C(F)(F)F)cc1
1030	CCc1nc(-c2csc(S(=O)(=O)N3CCCC(C(=O)NCc4ccc(Cl)cc4)C3)c2)no1 (centres undefined)
854	COc1ccc(-c2nnc(COc3ccc(NC(=O)C(NC(=O)c4ccco4)C(C)C)cc3)o2)cc1 (centres undefined)
592	Cc1cc(CN2CCC(CNC(=O)C(=O)NCc3ccccc3Cl)CC2)c(C)o1
713	O=C(OCc1ccncc1)c1cn(-c2cccc(F)c2)c(=O)c2ccccc12
931	CSc1ccc(CNC(=O)C2CCN(c3nnc(-c4ccc(C)cc4)o3)CC2)cc1
902	O=C(Nc1cnc(N2CCCCC2)nc1)c1ccccc1Br
579	CCN(CC)c1ccc(-c2noc(CN3CCC4(CC3)OCCO4)n2)cn1
777	CCOc1ccccc1NC(=O)C1CCc2nc(N3CCOCC3)ncc2C1 (centres undefined)
1310	O=C(Nc1nc(-c2cc(Cl)sc2Cl)cs1)c1ccc([N+](=O)[O-])s1
784	COc1ccc(-c2nc3ncccn3c2Nc2cc(C)cc(C)c2)cc1
673	CC1CCCN(CC2CCN(S(=O)(=O)c3ccc(F)cc3Cl)CC2)C1 (centres undefined)

Compound	RP-LC retention time [s]
CC(C)c1c(C(=O)O)nnn1Cc1ccc(Cl)cc1	788
CCCCC(=O)N1CCC2(C1)C(=O)N(C)c1ccc(OC)cc12 (centres undefined)	744
